Test results published in patent US12024500B2, “Five-membered ring-substituted pyridazinol compounds and derivatives, preparation methods, herbicidal compositions and applications thereof” (Qingdao Kingagroot Chemical Compound Co., Ltd., priority 2018, dated 2024).

Columns and labels:
Assay in all cases: Post-emergence weed control test (greenhouse pot, spray)
Assay type in all cases: in vivo
[1] = system: Rorippa indica; settings: 3 weeks after spraying; for weed control effect (activity level, fresh weight growth inhibition rate), Rorippa indica: 3000 g/ha
Source text: (§1) The activity level standard of harmful plant destruction (i.e. growth inhibition rate) is as follows: • Level 10: completely dead; • Level 9: above 90% growth inhibition rate; • Level 8: above 80% growth inhibition rate; • Level 7: above 70% growth inhibition rate; • Level 6: above 60% growth inhibition rate; • Level 5: above 50% growth inhibition rate; • Level 4: above 40% growth inhibition rate; • Level 3: above 30% growth inhibition rate; • Level 2: above 20% growth inhibition rate; • Level 1: below 20% growth inhibition rate; • Level 0: no effect.
(§2) The above described growth inhibition rates are fresh weight inhibition rates.
(§3) Experiment of post-emergence test: monocotyledonous and dicotyledonous weed seeds as well as main crop seeds (i.e., wheat, corn, rice, soybean, cotton, oilseed rape, millet and sorghum) were put into a plastic pot loaded with soil, then covered with 0.5-2 cm of soil, and the seeds were allowed to grow in good greenhouse environment. The test plants were treated at 4-5 leaf stage 2-3 weeks after sowing. The test compounds of the invention were dissolved in acetone respectively, then added with Tween-80 and diluted by a certain amount of water to give solutions with certain concentrations. The solution was sprayed to the plants with a sprayer. The plants were cultured for 3 weeks in the greenhouse.

[2] = system: Amaranthus retroflexus; settings: 3000 g/ha, 3 weeks after spraying
Source text: as §1, §2, §3

[3] = system: Chenopodiaceae; settings: 3000 g/ha, 3 weeks after spraying
Source text: as §1, §2, §3

[4] = system: Veronica polita; settings: 3 weeks after spraying; for weed control effect (activity level, fresh weight growth inhibition rate), Veronica polita: 3000 g/ha
Source text: as §1, §2, §3

| SMILES | weed control effect (activity level, fresh weight growth inhibition rate), Rorippa indica [1] | weed control effect (activity level, fresh weight growth inhibition rate), Amaranthus retroflexus [2] | weed control effect (activity level, fresh weight growth inhibition rate), Chenopodiaceae [3] | weed control effect (activity level, fresh weight growth inhibition rate), Veronica polita [4] | weed control effect (activity level), Rorippa indica, comparison experiment ([1]; 300 g/ha) | weed control effect (activity level), Veronica polita, comparison experiment ([4]; 300 g/ha) |
| --- | --- | --- | --- | --- | --- | --- |
| CCc1cnn(C)c1-c1nnc(Cl)cc1O [Compound 81] | 10 (Level 10: completely dead) | 10 (Level 10: completely dead) | 10 (Level 10: completely dead) | 10 (Level 10: completely dead) | – | – |
| Cn1ncc(C2CC2)c1-c1nnc(Cl)cc1O [Compound 82] | 10 (Level 10: completely dead) | 10 (Level 10: completely dead) | 10 (Level 10: completely dead) | 10 (Level 10: completely dead) | – | – |
| Cn1cncc1-c1nnc(Cl)cc1O [Compound 4] | 10 (Level 10: completely dead) | 10 (Level 10: completely dead) | 10 (Level 10: completely dead) | 10 (Level 10: completely dead) | – | – |
| Cn1nc(-c2ccccc2)cc1-c1nnc(Cl)cc1O [Compound 73] | 10 (Level 10: completely dead) | 10 (Level 10: completely dead) | 10 (Level 10: completely dead) | 10 (Level 10: completely dead) | – | – |
| N#Cc1ccc(-c2nnc(Cl)cc2O)s1 [Compound 33] | 10 (Level 10: completely dead) | 10 (Level 10: completely dead) | 10 (Level 10: completely dead) | 10 (Level 10: completely dead) | 10 | 10 |
| Cn1ncc(F)c1-c1nnc(Cl)cc1O [Compound 76] | 10 (Level 10: completely dead) | 10 (Level 10: completely dead) | 10 (Level 10: completely dead) | 10 (Level 10: completely dead) | – | – |
| Cn1nc(C2CC2)cc1-c1nnc(Cl)cc1O [Compound 61] | 10 (Level 10: completely dead) | 10 (Level 10: completely dead) | 10 (Level 10: completely dead) | 10 (Level 10: completely dead) | – | – |
| CC(=O)n1nccc1-c1nnc(Cl)cc1O [Compound 130] | 10 (Level 10: completely dead) | 10 (Level 10: completely dead) | 10 (Level 10: completely dead) | 10 (Level 10: completely dead) | – | – |
| Cc1cnn(C)c1-c1nnc(Cl)cc1O [Compound 80] | 10 (Level 10: completely dead) | 10 (Level 10: completely dead) | 10 (Level 10: completely dead) | 10 (Level 10: completely dead) | – | – |
| Cn1nc(F)cc1-c1nnc(Cl)cc1O [Compound 56] | 10 (Level 10: completely dead) | 10 (Level 10: completely dead) | 10 (Level 10: completely dead) | 10 (Level 10: completely dead) | – | – |
| Cn1nc(Cl)cc1-c1nnc(Cl)cc1O [Compound 48] | 10 (Level 10: completely dead) | 10 (Level 10: completely dead) | 10 (Level 10: completely dead) | 10 (Level 10: completely dead) | – | – |
| Cn1ccnc1-c1nnc(Cl)cc1O [Compound 3] | 10 (Level 10: completely dead) | 10 (Level 10: completely dead) | 10 (Level 10: completely dead) | 10 (Level 10: completely dead) | – | – |
| CCn1nc(C2CC2)cc1-c1nnc(Cl)cc1O [Compound 44] | 10 (Level 10: completely dead) | 10 (Level 10: completely dead) | 10 (Level 10: completely dead) | 10 (Level 10: completely dead) | – | – |
| Cn1ncc(Br)c1-c1nnc(Cl)cc1O [Compound 78] | 10 (Level 10: completely dead) | 10 (Level 10: completely dead) | 10 (Level 10: completely dead) | 10 (Level 10: completely dead) | – | – |
| Cn1nc([N+](=O)[O-])cc1-c1nnc(Cl)cc1O [Compound 72] | 10 (Level 10: completely dead) | 10 (Level 10: completely dead) | 10 (Level 10: completely dead) | 10 (Level 10: completely dead) | – | – |
| Cn1nc(CC(F)(F)F)cc1-c1nnc(Cl)cc1O [Compound 75] | 10 (Level 10: completely dead) | 10 (Level 10: completely dead) | 10 (Level 10: completely dead) | 10 (Level 10: completely dead) | – | – |
| Cn1ncc(Cl)c1-c1nnc(Cl)cc1O [Compound 77] | 10 (Level 10: completely dead) | 10 (Level 10: completely dead) | 10 (Level 10: completely dead) | 10 (Level 10: completely dead) | – | – |
| Cc1ccc(-c2nnc(Cl)cc2O)s1 [Compound 27] | 10 (Level 10: completely dead) | 10 (Level 10: completely dead) | 10 (Level 10: completely dead) | 10 (Level 10: completely dead) | – | – |
| Cn1ncc(C(F)(F)F)c1-c1nnc(Br)cc1O [Compound 95] | 10 (Level 10: completely dead) | 10 (Level 10: completely dead) | 10 (Level 10: completely dead) | 10 (Level 10: completely dead) | – | – |
| Cn1ncc(I)c1-c1nnc(Cl)cc1O [Compound 79] | 10 (Level 10: completely dead) | 10 (Level 10: completely dead) | 10 (Level 10: completely dead) | 10 (Level 10: completely dead) | – | – |
| Cn1nc(C(F)F)cc1-c1nnc(Cl)cc1O [Compound 74] | 10 (Level 10: completely dead) | 10 (Level 10: completely dead) | 10 (Level 10: completely dead) | 10 (Level 10: completely dead) | – | – |
| Cn1nc(C2CC2)cc1-c1nnc(C(F)(F)C(F)(F)F)cc1O [Compound 45] | 10 (Level 10: completely dead) | 10 (Level 10: completely dead) | 10 (Level 10: completely dead) | 10 (Level 10: completely dead) | – | – |
